Data taken from PubChem BioAssay (NCI).
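All cell lines were grown in 96-well plates and treated with compound for 48 hours. TGI denotes the concentration required for complete inhibition of growth.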

Experiments:
Assay in all cases: NCI tumour cell line growth inhibition, 48 h
CAKI-1 renal = system: CAKI-1 renal
SNB-75 CNS = system: SNB-75 CNS
HCC-2998 colon = system: HCC-2998 colon
UACC-62 melanoma = system: UACC-62 melanoma
ACHN renal = system: ACHN renal
LXFL 529 NSCLC = system: LXFL 529 NSCLC
MOLT-4 leukemia = system: MOLT-4 leukemia
KM20L2 colon = system: KM20L2 colon
CCRF-CEM leukemia = system: CCRF-CEM leukemia
U251 CNS = system: U251 CNS
A549 NSCLC = system: A549 NSCLC
SNB-78 CNS = system: SNB-78 CNS
HL-60(TB) leukemia = system: HL-60(TB) leukemia
RXF 393 renal = system: RXF 393 renal
EKVX NSCLC = system: EKVX NSCLC
OVCAR-5 ovarian = system: OVCAR-5 ovarian
MALME-3M melanoma = system: MALME-3M melanoma
SK-MEL-5 melanoma = system: SK-MEL-5 melanoma
UO-31 renal = system: UO-31 renal
M19-MEL melanoma = system: M19-MEL melanoma
SK-MEL-28 melanoma = system: SK-MEL-28 melanoma
OVCAR-3 ovarian = system: OVCAR-3 ovarian
TK-10 renal = system: TK-10 renal
786-0 renal = system: 786-0 renal
UACC-257 melanoma = system: UACC-257 melanoma
SF-539 CNS = system: SF-539 CNS
RXF-631 renal = system: RXF-631 renal
OVCAR-4 ovarian = system: OVCAR-4 ovarian
NCI-H460 lung = system: NCI-H460 lung
SK-OV-3 ovarian = system: SK-OV-3 ovarian
DLD-1 colon = system: DLD-1 colon
SW-620 colon = system: SW-620 colon
NCI-H23 lung = system: NCI-H23 lung
IGROV1 ovarian = system: IGROV1 ovarian
OVCAR-8 ovarian = system: OVCAR-8 ovarian
A498 renal = system: A498 renal
SK-MEL-2 melanoma = system: SK-MEL-2 melanoma
K-562 leukemia = system: K-562 leukemia
HCT-15 colon = system: HCT-15 colon
KM12 colon = system: KM12 colon
SF-295 CNS = system: SF-295 CNS
NCI-H226 lung = system: NCI-H226 lung
DMS 114 small cell lung = system: DMS 114 small cell lung
HCT-116 colon = system: HCT-116 colon
M14 melanoma = system: M14 melanoma
RPMI-8226 leukemia = system: RPMI-8226 leukemia
DMS 273 small cell lung = system: DMS 273 small cell lung
HOP-62 NSCLC = system: HOP-62 NSCLC
HT29 colon = system: HT29 colon
MCF7 breast = system: MCF7 breast
HOP-18 NSCLC = system: HOP-18 NSCLC
SNB-19 CNS = system: SNB-19 CNS
MDA-MB-231 breast = system: MDA-MB-231 breast
LOX IMVI melanoma = system: LOX IMVI melanoma
SR leukemia = system: SR leukemia
MDA-MB-435 = system: MDA-MB-435
HOP-92 NSCLC = system: HOP-92 NSCLC
SF-268 CNS = system: SF-268 CNS
P388 leukemia = system: P388 leukemia
HS 578T breast = system: HS 578T breast
SN12K1 renal = system: SN12K1 renal
MDA-N = system: MDA-N
SN12C renal = system: SN12C renal
NCI-H522 lung = system: NCI-H522 lung
COLO 205 colon = system: COLO 205 colon
PC-3 prostate = system: PC-3 prostate
NCI/ADR-RES ovarian = system: NCI/ADR-RES ovarian
DU-145 prostate = system: DU-145 prostate
BT-549 breast = system: BT-549 breast
P388/ADR leukemia = system: P388/ADR leukemia
T-47D breast = system: T-47D breast

C[C@]12CC[C@H](O)CC1=CC[C@@H]1C2CC[C@]2(C)Nc3c(cnn3-c3ccccc3)CC12 (stereo partly specified)
TGI (CAKI-1 renal): 24.8 µM
TGI (SNB-75 CNS): 9.12 µM
TGI (HCC-2998 colon): 22.3 µM
TGI (UACC-62 melanoma): 17.4 µM
TGI (ACHN renal): 29.7 µM
TGI (LXFL 529 NSCLC): 19.7 µM
TGI (MOLT-4 leukemia): 5.15 µM
TGI (KM20L2 colon): 5.8 µM
TGI (CCRF-CEM leukemia): 10.8 µM
TGI (U251 CNS): 14.9 µM
TGI (A549 NSCLC): 37 µM
TGI (SNB-78 CNS): 67.7 µM
TGI (HL-60(TB) leukemia): 7 µM
TGI (RXF 393 renal): 4.01 µM
TGI (EKVX NSCLC): 57.7 µM
TGI (OVCAR-5 ovarian): 17.3 µM
TGI (MALME-3M melanoma): 36 µM
TGI (SK-MEL-5 melanoma): 12.4 µM
TGI (UO-31 renal): 25.3 µM
TGI (M19-MEL melanoma): 27.5 µM
TGI (SK-MEL-28 melanoma): 18.7 µM
TGI (OVCAR-3 ovarian): 40.2 µM
TGI (TK-10 renal): 83.2 µM
TGI (786-0 renal): 7.16 µM
TGI (UACC-257 melanoma): 15 µM
TGI (SF-539 CNS): 2.99 µM
TGI (RXF-631 renal): 3.82 µM
TGI (OVCAR-4 ovarian): 36.6 µM
TGI (NCI-H460 lung): 10.8 µM
TGI (SK-OV-3 ovarian): 20.7 µM
TGI (DLD-1 colon): 35.7 µM
TGI (SW-620 colon): 8.22 µM
TGI (NCI-H23 lung): 63 µM
TGI (IGROV1 ovarian): 33.3 µM
TGI (OVCAR-8 ovarian): > 100 µM
TGI (A498 renal): 29.7 µM
TGI (SK-MEL-2 melanoma): 48.2 µM
TGI (K-562 leukemia): 10.2 µM
TGI (HCT-15 colon): 18.6 µM
TGI (KM12 colon): 5.13 µM
TGI (SF-295 CNS): 1.87 µM
TGI (NCI-H226 lung): 56.1 µM
TGI (DMS 114 small cell lung): 15.1 µM
TGI (HCT-116 colon): 12.2 µM
TGI (M14 melanoma): 30.9 µM
TGI (RPMI-8226 leukemia): 1.49 µM
TGI (DMS 273 small cell lung): 3.66 µM
TGI (HOP-62 NSCLC): 8.81 µM
TGI (HT29 colon): 4.88 µM

CC(C)Cc1ccc(C(C)CC2=CCC(CN(C)C)C2=O)cc1 (stereo unspecified)
TGI (CAKI-1 renal): 3.28 µM
TGI (MCF7 breast): 2.78 µM
TGI (SNB-75 CNS): 29.5 µM
TGI (HCC-2998 colon): 17 µM
TGI (UACC-62 melanoma): 23 µM
TGI (ACHN renal): 30.4 µM
TGI (LXFL 529 NSCLC): 3.11 µM
TGI (MOLT-4 leukemia): 5.8 µM
TGI (KM20L2 colon): 21.2 µM
TGI (CCRF-CEM leukemia): 12.6 µM
TGI (U251 CNS): 13.6 µM
TGI (HOP-18 NSCLC): 32.6 µM
TGI (A549 NSCLC): 35.2 µM
TGI (SNB-78 CNS): 14.7 µM
TGI (HL-60(TB) leukemia): 4.47 µM
TGI (RXF 393 renal): 14.3 µM
TGI (SNB-19 CNS): 29.5 µM
TGI (MDA-MB-231 breast): 22.5 µM
TGI (EKVX NSCLC): 33.9 µM
TGI (OVCAR-5 ovarian): 29.9 µM
TGI (MALME-3M melanoma): 13.1 µM
TGI (SK-MEL-5 melanoma): 28.9 µM
TGI (UO-31 renal): 30.1 µM
TGI (LOX IMVI melanoma): 9.84 µM
TGI (SR leukemia): 3.96 µM
TGI (M19-MEL melanoma): 13.8 µM
TGI (SK-MEL-28 melanoma): 21.9 µM
TGI (OVCAR-3 ovarian): 24.9 µM
TGI (TK-10 renal): > 22.7 µM
TGI (786-0 renal): 3.34 µM
TGI (UACC-257 melanoma): 26.9 µM
TGI (SF-539 CNS): 30.9 µM
TGI (MDA-MB-435): 20.5 µM
TGI (RXF-631 renal): 30.5 µM
TGI (OVCAR-4 ovarian): 41.6 µM
TGI (NCI-H460 lung): 48.9 µM
TGI (HOP-92 NSCLC): 8.41 µM
TGI (SF-268 CNS): 30 µM
TGI (SK-OV-3 ovarian): 31.7 µM
TGI (P388 leukemia): 6.34 µM
TGI (HS 578T breast): 40.6 µM
TGI (DLD-1 colon): 5.61 µM
TGI (SN12K1 renal): 11.7 µM
TGI (MDA-N): 17.9 µM
TGI (SW-620 colon): 4.48 µM
TGI (NCI-H23 lung): 28.2 µM
TGI (IGROV1 ovarian): 24 µM
TGI (SN12C renal): 20 µM
TGI (OVCAR-8 ovarian): 20.3 µM
TGI (NCI-H522 lung): 8.84 µM
TGI (COLO 205 colon): 6.77 µM
TGI (A498 renal): 33.4 µM
TGI (SK-MEL-2 melanoma): 26.9 µM
TGI (K-562 leukemia): 4.04 µM
TGI (HCT-15 colon): 7.91 µM
TGI (KM12 colon): 10.7 µM
TGI (SF-295 CNS): 32.1 µM
TGI (NCI-H226 lung): 33.7 µM
TGI (PC-3 prostate): 28.4 µM
TGI (DMS 114 small cell lung): 10.9 µM
TGI (NCI/ADR-RES ovarian): 43.7 µM
TGI (HCT-116 colon): 11.1 µM
TGI (DU-145 prostate): 30.2 µM
TGI (M14 melanoma): 17.2 µM
TGI (RPMI-8226 leukemia): 5.24 µM
TGI (DMS 273 small cell lung): 14.9 µM
TGI (BT-549 breast): 38.9 µM
TGI (HOP-62 NSCLC): 36.4 µM
TGI (P388/ADR leukemia): > 100 µM
TGI (HT29 colon): 17.5 µM
TGI (T-47D breast): 4.7 µM

N/N=C1\C(=O)N(c2ccc(Cl)cc2Cl)C(=O)C(=O)C1c1nc2ccccc2o1 (stereo unspecified)
TGI (CAKI-1 renal): > 100 µM
TGI (SNB-75 CNS): > 100 µM
TGI (HCC-2998 colon): > 100 µM
TGI (UACC-62 melanoma): > 100 µM
TGI (ACHN renal): > 100 µM
TGI (LXFL 529 NSCLC): > 100 µM
TGI (MOLT-4 leukemia): > 100 µM
TGI (KM20L2 colon): > 100 µM
TGI (CCRF-CEM leukemia): > 100 µM
TGI (U251 CNS): > 100 µM
TGI (HOP-18 NSCLC): > 100 µM
TGI (A549 NSCLC): > 100 µM
TGI (SNB-78 CNS): > 100 µM
TGI (HL-60(TB) leukemia): > 100 µM
TGI (SNB-19 CNS): > 100 µM
TGI (EKVX NSCLC): > 100 µM
TGI (OVCAR-5 ovarian): > 100 µM
TGI (MALME-3M melanoma): > 100 µM
TGI (SK-MEL-5 melanoma): > 100 µM
TGI (UO-31 renal): > 100 µM
TGI (LOX IMVI melanoma): > 100 µM
TGI (M19-MEL melanoma): > 100 µM
TGI (SK-MEL-28 melanoma): > 100 µM
TGI (OVCAR-3 ovarian): > 100 µM
TGI (TK-10 renal): > 100 µM
TGI (786-0 renal): > 100 µM
TGI (UACC-257 melanoma): > 100 µM
TGI (SF-539 CNS): > 100 µM
TGI (RXF-631 renal): > 100 µM
TGI (OVCAR-4 ovarian): > 100 µM
TGI (NCI-H460 lung): > 100 µM
TGI (HOP-92 NSCLC): > 100 µM
TGI (SF-268 CNS): > 100 µM
TGI (SK-OV-3 ovarian): > 100 µM
TGI (DLD-1 colon): > 100 µM
TGI (SW-620 colon): > 100 µM
TGI (NCI-H23 lung): > 100 µM
TGI (IGROV1 ovarian): > 100 µM
TGI (SN12C renal): > 100 µM
TGI (OVCAR-8 ovarian): > 100 µM
TGI (NCI-H522 lung): > 100 µM
TGI (COLO 205 colon): > 100 µM
TGI (A498 renal): > 100 µM
TGI (SK-MEL-2 melanoma): > 100 µM
TGI (K-562 leukemia): > 100 µM
TGI (HCT-15 colon): > 100 µM
TGI (KM12 colon): > 100 µM
TGI (SF-295 CNS): > 100 µM
TGI (NCI-H226 lung): > 100 µM
TGI (DMS 114 small cell lung): > 100 µM
TGI (HCT-116 colon): > 100 µM
TGI (M14 melanoma): > 100 µM
TGI (RPMI-8226 leukemia): > 100 µM
TGI (DMS 273 small cell lung): > 100 µM
TGI (HOP-62 NSCLC): > 100 µM
TGI (HT29 colon): > 100 µM
